Data published in ChEMBL document CHEMBL2034850, “Radiosynthesis of a ¹⁸F-labeled 2,3-diarylsubstituted indole via McMurry coupling for functional characterization of cyclooxygenase-2 (COX-2) in vitro and in vivo” (Bioorg Med Chem, 2012).

Tests used:
[1] = test system: HT-29; conditions: human, ht-29, 4 h
Description: Cellular uptake in human HT-29 monolayers assessed per mg of protein at 0.4 MBq after 4 hrs by gamma counting

[2] = test system: HT-29; experiment: Cellular uptake in human HT-29 spheroids of diameter 600+/-10 um assessed per mg of protein at 0.4 MBq after 4 hrs by gamma counting; format: ADME, cell-based; conditions: ht-29, 4 h
[3] = test system: HT-29; experiment: Cellular uptake in human HT-29 spheroids of diameter 300+/-10 um assessed per mg of protein at 0.4 MBq after 4 hrs by gamma counting; format: ADME, cell-based; conditions: ht-29, 4 h

Compound: O=[N+]([O-])c1nccn1CC(O)C[18F] (stereo not drawn) [[18F]FLUOROMISONIDAZOLE]
- Drug uptake [1]: 1.03 %ID
- Drug uptake [2]: 9.86 %ID
- Drug uptake [3]: 1.17 %ID
